The subject of test [1] is MVLN cells. As to the kind of experiment: Transactivation assay, MVLN cells transfixed with reporter gene Vit-TK-LUC. The following applies: Homo sapiens, MVLN, read-out: IC50 [nM] MVLN cells. It counts as cell-based. How it is done: The antiestrogenic action of the compounds according to the invention was determined in transactivation assays [Demirpence, E.; Duchesne M.-J.; Badia, E.; Gagne, D. and Pons, M.: MVLN Cells: A Bioluminescent MCF-7-Derived Cell Line to Study the Modulation of Estrogenic Activity; J. Steroid. Molec. Biol. Vol. 46, No. 3, 355-364 (1993) as well as Berry, M.; Metzeger D.; Chambon, P.: Role of the Two Activating Domains of the Estrogen Receptor in the Cell-type and Promoter-context Dependent Agonistic Activity of the Anti-estrogen 4-Hydroxytamoxifen; The EMBO Journal Vol. 9, 2811-2818 (1990)].
The IC50 values for the new compounds lie in the nanomolar range. […] The HeLa cells are transfixed with human estrogen receptor-expression vector (HEGO) and Vit-TK-CAT reporter genes, and the MVLN cells are transfixed with reporter gene Vit-TK-LUC: […]
(In a reporter assay the amount or activity of a reporter protein is the signal.)

The test system of test [2] is MXT breast neoplasm. As to the kind of experiment: Tumor-inhibiting effect on hormone-dependent MXT(+) breast cancer in mice. In kind it is in vivo, mouse. The following applies: oral. From the text:
2.1 MXT breast neoplasm in mice 2.1. Tumor-Inhibiting Effect on Hormone-Dependent […] Cancer in Mice Principle of the Method The MXT(+)-breast cancer is an estrogen- and progesterone receptor-positivetumor that was originally produced by induction with urethane and is then transplanted onward in series. Growth can be inhibited by ovariectomy and antiestrogens. This model is therefore very well suited for studying the tumor-inhibiting action of endocrinotherapeutic agents. Execution of the Test Animal Material Adult, female BDFI-mice (7-10 weeks old; weight 18-21 g). Standard care conditions. Formulation and Administration of Test Substances The test substances are dissolved in ethanol+peanut oil (1+9), and the one-time dose is administered at a volume of 0.1 ml s.c. In the case of oral administration, the test substance is dissolved in ethanol+peanut oil (1+9), and the daily dose is administered at a volume of 0.1 ml. The treatment begins either immediately after tumor implantation or 2-3 weeks thereafter (treatment of established tumors). […] Tumor growth is determined by ascertaining the tumor surface area with the aid of a sliding gauge. The tumor surface area is calculated from the product of the longest diameter and the tumor diameter that is perpendicular to said longest diameter. […] Analysis Average values ±SE of tumor surface areas are determined. […]

Test [3] concerns NMU-induced breast cancer. As to the kind of experiment: NMU-induced breast cancer in rats. It counts as in vivo, rat. The text has this: 2.3 NNMU^+ -induced breast cancer in rats
2.3 Influencing of Tumor Growth in the NMU^+ Model in Rats (MM Tumor Model)
^+ N-Methyl-N-nitrosourea
The growth of the NMU-induced breast neoplasm of rats is largely dependent on estrogens and, in contrast to the DMBA tumor model, less on prolactin. Active antiestrogens, aromatase inhibitors, and antigestagens lead to the inhibition of tumor growth. Substances with antigonadotrophic properties also exert a tumor-inhibiting action.
Female rats (Sprague-Dawley)
NMU=i.v., test substance: s.c./p.o. […]
p.o. = 0.1 or 0.2 ml/100 g/d in ethanol + peanut oil (1 + 9)
s.c. = 0.1 ml/100 g/d in ethanol + peanut oil (1 + 9)
The animals receive 50 mg/kg of NMU i.v. on a one-time basis. Then, the animals are examined once a week by palpation for tumor development. About 6-8 weeks after NMU treatment, one or more tumors develop per animal. At a minimum size of 150 mm^2 /tumor/animal, daily treatment (7× a week) begins with the test substance, and the determination of body weight+tumor size is done (with the aid of a sliding gauge) (1×/week).
The values that are found are tested for significance in the Dunnett Test and are plotted graphically.

Regarding `CN(CCCCC[C@@H]1Cc2cc(O)ccc2[C@H]2CC[C@]3(C)[C@@H](O)CC[C@H]3[C@H]12)CCCSCCCC(F)(F)C(F)(F)F` [Example 1, 7α-{5-[N-Methyl-N-3-(4,4,5,5,5-pentafluoropentylthio)-propylamino]-pentyl}-estra-1,3,5(10)-triene-3,17β-diol], the IC50 in test [1] is 1 nM. The “inhibition of tumor growth” value is “inhibits tumor growth as strongly as an ovariectomy” in test [2] (14 days of treatment, 10 mg/kg/day (FIG. 3)) and “complete inhibition of tumor growth” in test [3] (oral, 10 mg/kg/day). The “activity compared to 7α-[9-(4,4,5,5,5-pentafluoropentanesulfinyl)-nonyl]-estra-1,3,5(10)-triene-3,17β-diol” value in test [2] (MXT, 14 days, 10 mg/kg/day) is given as “more strongly active”; in test [3] (NMU, oral), “clearly more strongly active”. Also, in test [3] (orally administered (FIG. 5)), the “inhibition of tumor growth, dose dependence” value is “inhibits tumor growth in a dose-dependent manner”.

One may read the IC50 as the concentration that gives 50% inhibition.
